Assay results reported in patent US20100137144A1, “METHOD AND MEANS FOR DETECTING AND/OR QUANTIFYING HIERARCHICAL MOLECULAR CHANGE OF A CELL IN RESPONSE TO AN EXTERNAL STIMULUS” (Eppendorf Array Technologies S.A., priority 2005, published 2010).
“Also recorded” adds a separate entry of the source.

Key:
[1] = tested on: MCF7 cells; assay: DualChip human breast cancer microarray: gene expression in stimulated MCF7 cells; type: cell-based; details: 24 h; for Number of genes whose expression level is modified: out of 210
[2] = tested on: AP1 (c-Jun), STAT1, Elk-1, p53, c-Myc, ATF2, NFATc1 and MEF2 in MCF7 cells; assay: TF Chip MAPK microarray: activated transcription factors in stimulated MCF7 cells; type: cell-based, human
[3] = tested on: AP1 (c-Jun), STAT1, Elk-1, p53, c-Myc, ATF2, NFATc1 and MEF2 in U937 cells; assay: TF Chip MAPK microarray: activated transcription factors in stimulated U937 cells; type: cell-based, human; details: 1000 U/ml
Description: They are stimulated at 10.10^6 cells/75 cm^2 flask with IFNγ (1000 U/ml) for 15 min and 24 h or left untreated.
The activation of transcription factors is monitored on microarrays using the TF Chip MAPK kit from Eppendorf (Germany). The arrays contain double stranded DNA molecules as capture probes for the TF binding. The TF Chip MAPK allows the assay of AP1 (c-Jun), STAT1, Elk-1, p53, c-Myc, ATF2, NFATc1 and MEF2.
A blocking step is performed in a Blocking Solution (TF Chip MAPK kit, Eppendorf, Germany) for 1 h at RT, followed by a washing step using the Washing Buffer A (TF Chip MAPK kit, Eppendorf, Germany). The nuclear extracts are prepared as described in WO 01/73115. They are diluted in the Sample Dilution Solution and Binding Solution (TF Chip MAPK kit, Eppendorf, Germany) and contacted with the arrays. Incubation is performed for one hour at room temperature and under agitation at 600 rpm. Samples are removed and microarrays are washed 3 times.
A mix of primary antibodies (Primary Antibody Cocktail; TF Chip MAPK kit, Eppendorf, Germany), each specifically recognizing the activated form of a transcription factor to be detected and diluted in the Primary Antibody Solution (TF Chip MAPK kit, Eppendorf, Germany), is contacted with the microarrays for 1 h at RT, followed by 3 washing steps. Each microarray is then contacted with Cy3-labeled secondary antibodies under indirect light for 45 min at RT, followed by washing.
Hybridization chambers are removed, and slides are rinsed with Washing Buffer B (TF Chip MAPK kit, Eppendorf, Germany) and dried. A fluorescence detection of signals is performed by scanning slides using a laser confocal scanner “ScanArray” (Packard, USA) at a resolution of 10 μm. Signals are analyzed using the TF Chip MAPK Data analysis software.
The experiment was performed as described in example 1 with the cells being stimulated for 15 min and 24 h with IFNγ or IFNα at the same concentration (1000 U/ml).
The assays were performed on the TF Chip MAPK kit and on the DualChip® human RNAi side effect (Eppendorf, Germany) as in example 1. Table 2 presents the ratios for the genes whose values were found quantitative as explained in example 1. However, we investigated further the genes which were found positive for the IFNα response. For these genes, we incorporated into the table the values for the genes determined as quantitative for IFNγ but also the values for two genes, SERPINB2 and IFIT2, which were found qualitative, and the values for 4 other genes for which the ratios were significant when a confidence interval of 90% rather than the normal 95% is considered. These values are presented for sake of completing the information on the comparison between the two treatments and are marked with an asterisk.

[4] = tested on: U937 cells; assay: DualChip human RNAi side effect microarray: gene expression in stimulated U937 cells; type: cell-based; details: for Number of genes exclusively regulated by this interferon: from 89 significant genes
Description: The DualChip® human RNAi side effect (Eppendorf, Germany) was used for assay of the changes in the gene expression.
The microarray contains, in triplicates, capture probes to analyze the expression of 260 human genes. In order to evaluate the entire experiment, several positive and negative controls (for hybridization and detection) as well as special capture probes for normalization are included. The DualChip® consists of two microarrays on one slide that has already been framed with a hybridization frame.
The instructions provided by the supplier were followed for the hybridization and the analysis of the results.

C[C@]12CC[C@@H]3c4ccc(O)cc4CC[C@H]3[C@@H]1CC[C@@H]2O [β-Estradiol, β-estradiol]
Number of genes whose expression level is modified ([1]; 1 μM): 50 genes
Activation state of c-Jun, ATF2, Elk-1 and STAT1 ([2]; MCF7 cells, 1 μM): did not highlight any modification in the activation state
Activation of c-Myc ([2]; MCF7 cells, 1 μM, 24 h, cells confluent): reduced
Activation of p53 ([2]; MCF7 cells, 1 μM, 24 h, cells confluent, possibly not specific to the treatment): triggered
Activation of c-Myc ([2]; sub-confluent MCF7 cells, 1 μM, 4 h): fast activation

IFNα
Activation of transcription factor STAT1 ([3]; 15 min, vs unstimulated cells): the only TF showing a specific signal in the treated cells
Number of genes exclusively regulated by this interferon ([4]; 24 h, 1000 U/ml): 6 genes

IFNγ: interferon γ, used at 1000 U/ml as stimulus of U937 cells
Activation of transcription factor MEF2 [3]: activated in IFNγ stimulated and non stimulated conditions
Activation of transcription factor STAT1 ([3]; 15 min, vs unstimulated cells): specifically activated; also recorded: fast activation; also recorded: the only TF showing a specific signal in the treated cells
Activation of transcription factor STAT1 ([3]; 24 h): disappears after 24 h
Activation of the 7 other transcription factors (AP1 (c-Jun), Elk-1, p53, c-Myc, ATF2, NFATc1, MEF2) ([3]; vs unstimulated cells): None of the 7 other ones (AP1 (c-Jun), Elk-1, p53, c-Myc, ATF2, NFATc1 and MEF2) were activated
Number of genes affected at the two stimulation times ([4]; 15 min and 24 h): Five
Differential expression of genes BAX and BCLX ([4]; 1000 U/ml): not found to be differentially expressed
Number of genes whose expression level varies significantly ([4]; 1000 U/ml, 15 min and 24 h, quantitative analysis, 260 genes on array): 81 genes
Expression level of gene FOS ([4]; 1000 U/ml, 24 h): returned to a basal level
Number of genes exclusively regulated by this interferon ([4]; 24 h, 1000 U/ml): 62 genes
Number of genes specifically affected by a 15 min treatment ([4]; out of 81): 4 genes
Number of genes specifically modified after a 24 h treatment ([4]; out of 81): 72 genes

hydrogen peroxide [H2O2]
Regulation of genes p53, bcl-x and thrombospondin-1 ([1]; 200 μM): not shown experimentally to be regulated
Number of apoptotic pathway genes affected (BAG and BAX) ([1]; 200 μM, of 9 on the array): 2 genes
Number of genes whose expression level is modified ([1]; 200 μM): 16 genes
Expression ratio, gene BAG-1 ([1]; 200 μM, vs untreated cells): 1.65
Expression ratio, gene BAX ([1]; 200 μM, vs untreated cells): 1.86
Expression ratio, gene CTSD ([1]; 200 μM, vs untreated cells): 1.65
Expression ratio, gene FOXM1 ([1]; 200 μM, vs untreated cells): 0.55
Expression ratio, gene K-alpha-1 ([1]; 200 μM, vs untreated cells): 0.63
Expression ratio, gene MCM7 ([1]; 200 μM, vs untreated cells): 0.57
Expression ratio, gene MDM2 ([1]; 200 μM, vs untreated cells): 1.73
Expression ratio, gene MKi67 ([1]; 200 μM, vs untreated cells): 0.56
Expression ratio, gene MYBL2 ([1]; 200 μM, vs untreated cells): 0.53
Expression ratio, gene Muc1 ([1]; 200 μM, vs untreated cells): 1.64
Expression ratio, gene NIFU ([1]; 200 μM, vs untreated cells): 1.53
Expression ratio, gene ODC ([1]; 200 μM, vs untreated cells): 0.61
Expression ratio, gene PPP1CB ([1]; 200 μM, vs untreated cells): 0.62
Expression ratio, gene STMN1 ([1]; 200 μM, vs untreated cells): 0.54
Expression ratio, gene TOB ([1]; 200 μM, vs untreated cells): 1.63
Expression ratio, gene p21 (CDKN1A) ([1]; 200 μM, vs untreated cells): 3.26
Activation state of c-Jun, Elk-1 and STAT1 ([2]; MCF7 cells, 200 μM): did not highlight any modification in the activation state
Activation of ATF2, c-Myc, MEF2 and NFATc1 ([2]; MCF7 cells, 200 μM, 3 h): suppressed
Activation of transcription factor p53 ([2]; MCF7 cells, 200 μM, 3 h and 24 h): activation of p53
Activation of ATF2, c-Myc, MEF2 and NFATc1 ([2]; MCF7 cells, 200 μM, 24 h): restored to a basal level
